# Laboratory results published in DBAASP.
# Where “and” joins values, the source holds several entries; their conditions need not be identical. Equal values may be shown once.
# How the values were obtained:
# Test in all cases: ≥ marks a high value that may be exact or a test limit, other limits are often not marked, values filed in µg/mL are converted to µM
# [1] = test system: Candida albicans CCARM 14020
# [2] = test system: Candida albicans CCARM 14021
# [3] = test system: Candida albicans CCARM 14022
# Candida albicans SC5314 = test system: Candida albicans SC5314
# Aspergillus fumigatus = test system: Aspergillus fumigatus
# [4] = test system: Bacillus subtilis ATCC 6633
# Candida albicans = test system: Candida albicans
# [5] = test system: Candida parapsilosis ATCC 22019
# Cryptococcus neoformans = test system: Cryptococcus neoformans
# [6] = test system: Escherichia coli ATCC 10536
# [7] = test system: Klebsiella pneumoniae ATCC 27736
# [8] = test system: Pseudomonas aeruginosa ATCC BAA-427
# Sporothrix schenckii = test system: Sporothrix schenckii
# [9] = test system: Staphylococcus aureus ATCC 9144
# Staphylococcus aureus MR = test system: Staphylococcus aureus MR
# [10] = test system: Staphylococcus epidermidis NRRL B-4268
# [11] = test system: Trichophyton mentagrophytes
# [12] = test system: Bacillus subtilis DSM 347
# [13] = test system: Escherichia coli DH5alpha
# [14] = test system: Franconibacter helveticus DSM 18396
# [15] = test system: Kocuria rhizophila DSM 348
# [16] = test system: Escherichia coli ATCC 11219
# [17] = test system: Klebsiella pneumoniae ATCC 10031
# [18] = test system: Pseudomonas aeruginosa ATCC 13388
# [19] = test system: Salmonella enterica subsp. enterica serovar Typhimurium ATCC 14028
# [20] = test system: Staphylococcus aureus ATCC 6538
# [21] = test system: Actinomyces naeslundii ATCC 12104
# [22] = test system: Enterococcus faecalis ATCC 29212
# [23] = test system: Lacticaseibacillus casei ATCC 393
# [24] = test system: Lactobacillus acidophilus ATCC 14931
# [25] = test system: Lactobacillus acidophilus ATCC 53544
# [26] = test system: Limosilactobacillus fermentum A1753
# [27] = test system: Limosilactobacillus fermentum ATCC 9338
# [28] = test system: Streptococcus gordonii ATCC 35105
# [29] = test system: Streptococcus gordonii DL1
# [30] = test system: Streptococcus mutans UA159
# [31] = test system: Streptococcus salivarius ATCC 13419
# [32] = test system: Streptococcus salivarius ATCC 27945
# [33] = test system: Streptococcus sanguinis ATCC 10556
# [34] = test system: Streptococcus sanguinis JCM 5708
# [35] = test system: Streptococcus sobrinus 6715
# [36] = test system: Bacillus subtilis KCTC 1918
# [37] = test system: Candida albicans TIMM 1768
# [38] = test system: Pseudomonas aeruginosa KCTC 1637
# [39] = test system: Salmonella typhimurium KCTC 1926
# [40] = test system: Staphylococcus epidermidis KCTC 3096
# [41] = test system: Trichosporon beigelii KCTC 7707
# [42] = test system: Pectobacterium carotovorum
compound,measurement,setting,value
CC(C)C[C@H](NC(=O)[C@H](C)N)C(=O)N[C@@H](CC(C)C)C(=O)N[C@@H](Cc1cnc[nH]1)C(=O)N[C@@H](Cc1cnc[nH]1)C(=O)NCC(=O)N[C@@H](Cc1ccc(O)cc1)C(=O)N[C@@H](CCCCN)C(=O)N[C@@H](CCCN=C(N)N)C(=O)N[C@@H](CCCCN)C(=O)N[C@@H](Cc1ccccc1)C(=O)N[C@@H](Cc1cnc[nH]1)C(N)=O [ALLHHGYKRKFH],MIC,[1],7.51 µM
same,MIC,[2],21.2 µM
same,MIC,[3],21.2 µM
same,MIC,Candida albicans SC5314,15 µM
CC(C)C[C@H](NC(=O)[C@H](C)NC(=O)[C@H](CCCN=C(N)N)NC(=O)[C@H](CCCN=C(N)N)NC(=O)[C@H](C)NC(=O)[C@H](Cc1c[nH]c2ccccc12)NC(=O)[C@H](CCCCN)NC(=O)[C@H](CCCN=C(N)N)NC(=O)[C@H](C)NC(=O)[C@H](CCCN=C(N)N)NC(=O)[C@H](CCCN=C(N)N)NC(=O)[C@H](C)N)C(=O)N[C@@H](CCCCN)C(=O)N[C@@H](CC(C)C)C(=O)N[C@@H](C)C(N)=O [ARRARKWARRALKLA],MIC,Aspergillus fumigatus,25 µM
same,MIC,[4],20 µM
same,MIC,Candida albicans,> 25 µM
same,MIC,[5],25 µM
same,MIC,Cryptococcus neoformans,25 µM
same,MIC,[6],4.5 µM
same,MIC,[7],25 µM
same,MIC,[8],6.25 µM
same,MIC,Sporothrix schenckii,25 µM
same,MIC,[9],6.25 µM
same,MIC,Staphylococcus aureus MR,25 µM
same,MIC,[10],8 µM
same,MIC,[11],25 µM
CC[C@H](C)[C@H](NC(=O)CN)C(=O)NCC(=O)N[C@@H](CCCCN)C(=O)N[C@@H](Cc1ccccc1)C(=O)N[C@@H](CC(C)C)C(=O)N[C@@H](Cc1cnc[nH]1)C(=O)N[C@@H](CO)C(=O)N[C@@H](C)C(=O)N[C@@H](CCCCN)C(=O)N[C@@H](CCCCN)C(=O)N[C@@H](Cc1ccccc1)C(=O)NCC(=O)N[C@@H](CCCCN)C(=O)N[C@@H](C)C(=O)N[C@@H](C)C(=O)N[C@H](C(=O)NCC(=O)N[C@@H](CCC(=O)O)C(=O)N[C@H](C(=O)N[C@@H](CCSC)C(=O)N[C@@H](CC(N)=O)C(=O)N[C@@H](CO)C(=O)O)[C@@H](C)CC)C(C)C [GIGKFLHSAKKFGKAAVGEIMNS],MIC,[12],16 µM
same,MIC,[13],≥ 128 µM
same,MIC,[14],≥ 128 µM
same,MIC,[15],4 µM
CC[C@H](C)[C@H](NC(=O)CN)C(=O)N[C@@H](Cc1cnc[nH]1)C(=O)N[C@@H](CC(=O)O)C(=O)N[C@H](C(=O)N[C@@H](CC(C)C)C(=O)N[C@@H](CCCCN)C(=O)N[C@@H](Cc1ccc(O)cc1)C(=O)NCC(=O)N[C@@H](C)C(=O)N1CCC[C@H]1C(=O)N[C@@H](CO)C(N)=O)[C@@H](C)CC [GIHDILKYGAPS],MIC,[16],15 µM
same,MIC,[17],10 µM
same,MIC,[18],≥ 50 µM
same,MIC,[19],> 50 µM
same,MIC,[20],20 µM
CC(C)C[C@H](NC(=O)CN)C(=O)N[C@@H](CC(C)C)C(=O)N[C@@H](Cc1c[nH]c2ccccc12)C(=O)N[C@@H](Cc1cnc[nH]1)C(=O)N[C@@H](CC(C)C)C(=O)N[C@@H](CC(C)C)C(=O)N[C@@H](Cc1cnc[nH]1)C(=O)N[C@@H](Cc1cnc[nH]1)C(=O)N[C@@H](CC(C)C)C(=O)N[C@@H](CC(C)C)C(=O)N[C@@H](Cc1cnc[nH]1)C(N)=O [GLLWHLLHHLLH],MIC,[21],2.69 µM
same,MIC,[22],25.1 µM and 50.2 µM
same,MIC,[23],2.69 µM and 3.14 µM and 6.27 µM
same,MIC,[24],2.69 µM
same,MIC,[25],3.14 µM and 4.92 µM
same,MIC,[26],2.02 µM and 3.14 µM
same,MIC,[27],2.69 µM
same,MIC,[20],7.17 µM and 14.3 µM
same,MIC,[28],10.7 µM and 21.5 µM
same,MIC,[29],5.37 µM
same,MIC,[30],4.5 µM and 4.48 µM and 6.27 µM
same,MIC,[31],5.37 µM
same,MIC,[32],2.47 µM and 4.92 µM
same,MIC,[33],5.37 µM
same,MIC,[34],5.37 µM and 10.7 µM
same,MIC,[35],10.7 µM and 4.03 µM and 8.06 µM
CC[C@H](C)[C@H](NC(=O)CNC(=O)[C@@H](NC(=O)[C@H](CCCCN)NC(=O)[C@H](CCCCN)NC(=O)[C@H](Cc1ccccc1)NC(=O)[C@H](CC(C)C)NC(=O)[C@H](CCCCN)NC(=O)[C@H](Cc1c[nH]c2ccccc12)NC(=O)[C@@H](N)CCCCN)[C@@H](C)CC)C(=O)NCC(=O)N[C@@H](CCCCN)C(=O)N[C@@H](Cc1ccccc1)C(=O)N[C@@H](CC(C)C)C(=O)N[C@@H](CCCCN)C(=O)N[C@@H](CCCCN)C(=O)N[C@@H](CCCCN)C(N)=O [KWKLFKKIGIGKFLKKK],MIC,[36],3.12 µM
same,MIC,[37],12.5 µM
same,MIC,[38],2.21 µM
same,MIC,[39],0.19 µM
same,MIC,[40],3.12 µM
same,MIC,[41],6.25 µM
CC(C)C[C@H](NC(=O)[C@H](CC(N)=O)NC(=O)[C@H](Cc1ccc(O)cc1)NC(=O)[C@@H]1CCCN1C(=O)[C@@H]1CCCN1)C(=O)N[C@@H](CC(N)=O)C(=O)N[C@@H](CO)C(=O)N[C@@H](Cc1cnc[nH]1)C(=O)N[C@H](C(=O)N[C@@H](CCC(N)=O)C(=O)N[C@@H](CCC(=O)O)C(=O)N[C@@H](Cc1ccc(O)cc1)C(=O)N[C@@H](CO)C(=O)N[C@@H](CCCCN)C(=O)N1CCC[C@H]1C(=O)N[C@@H](CCC(=O)O)C(=O)N[C@@H](CC(=O)O)C(=O)N[C@H](C(=O)N[C@@H](Cc1ccccc1)C(=O)N[C@@H](CC(=O)O)C(=O)O)[C@@H](C)O)[C@@H](C)O [PPYNLNSHTQEYSKPEDTFD],MIC,[42],4.47 µM
